Measurements taken from ChEMBL document CHEMBL1131651, “Discovery of LB30057, a benzamidrazone-based selective oral thrombin inhibitor” (Bioorg Med Chem Lett, 1998).

Tests used:
Prothrombin [1] = molecular target: Prothrombin (Bos taurus, UniProt P00735)
Description: Compound was tested for inhibitory activity against bovine thrombin

[2] = Compound was tested for percent of oral bioavailability at 10 […] dose in dogs; assay type: ADME, organism-based, Canis lupus familiaris; conditions: dog, in vivo, read-out: Bioavailabiility
Coagulation factor X = Coagulation factor X (Homo sapiens, UniProt P00742); assay: The compound was tested for inhibitory activity against Coagulation factor X
Chain of Coagulation factor X (P00742 41-179 limits assumed): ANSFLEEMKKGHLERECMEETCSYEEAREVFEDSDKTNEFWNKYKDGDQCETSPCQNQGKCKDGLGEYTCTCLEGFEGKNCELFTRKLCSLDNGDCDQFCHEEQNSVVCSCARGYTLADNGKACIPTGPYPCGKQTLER
Chain of Coagulation factor X (P00742 235-488 limits assumed): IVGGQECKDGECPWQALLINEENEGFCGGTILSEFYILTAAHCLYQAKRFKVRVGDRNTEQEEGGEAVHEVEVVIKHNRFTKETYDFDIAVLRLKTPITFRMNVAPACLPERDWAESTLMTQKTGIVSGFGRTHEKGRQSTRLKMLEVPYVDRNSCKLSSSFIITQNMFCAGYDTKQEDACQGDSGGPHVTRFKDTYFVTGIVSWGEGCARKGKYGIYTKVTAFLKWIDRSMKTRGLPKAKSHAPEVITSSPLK

Plasminogen = Plasminogen (Homo sapiens, UniProt P00747); assay: The compound was tested for inhibitory activity against human plasmin
Chain of Plasminogen (P00747 97-580 limits assumed): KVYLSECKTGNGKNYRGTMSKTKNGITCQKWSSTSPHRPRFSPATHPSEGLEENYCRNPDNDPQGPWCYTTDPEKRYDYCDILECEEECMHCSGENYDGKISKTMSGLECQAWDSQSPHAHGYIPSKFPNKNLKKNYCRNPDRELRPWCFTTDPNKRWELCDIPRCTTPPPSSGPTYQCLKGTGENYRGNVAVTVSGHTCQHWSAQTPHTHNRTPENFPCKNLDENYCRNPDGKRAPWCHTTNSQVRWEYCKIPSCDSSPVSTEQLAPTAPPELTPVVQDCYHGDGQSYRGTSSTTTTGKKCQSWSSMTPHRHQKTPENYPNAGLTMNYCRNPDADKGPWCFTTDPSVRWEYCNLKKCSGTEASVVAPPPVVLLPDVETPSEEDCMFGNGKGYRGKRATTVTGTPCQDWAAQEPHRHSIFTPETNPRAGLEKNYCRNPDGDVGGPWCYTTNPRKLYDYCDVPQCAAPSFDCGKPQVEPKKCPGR
Chain of Plasminogen (P00747 581-810 limits assumed): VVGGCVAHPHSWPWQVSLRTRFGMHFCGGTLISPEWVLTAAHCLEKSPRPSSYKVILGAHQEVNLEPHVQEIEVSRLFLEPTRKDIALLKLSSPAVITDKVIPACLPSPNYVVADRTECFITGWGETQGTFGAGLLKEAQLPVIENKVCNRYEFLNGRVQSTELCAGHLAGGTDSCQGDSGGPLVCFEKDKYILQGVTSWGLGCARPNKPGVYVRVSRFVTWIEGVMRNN

[3] = molecular target: Tissue-type plasminogen activator (Homo sapiens, UniProt P00750); assay: The compound was tested for inhibitory activity against tissue plasminogen activator
Chain of Tissue-type plasminogen activator (P00750 whole entry): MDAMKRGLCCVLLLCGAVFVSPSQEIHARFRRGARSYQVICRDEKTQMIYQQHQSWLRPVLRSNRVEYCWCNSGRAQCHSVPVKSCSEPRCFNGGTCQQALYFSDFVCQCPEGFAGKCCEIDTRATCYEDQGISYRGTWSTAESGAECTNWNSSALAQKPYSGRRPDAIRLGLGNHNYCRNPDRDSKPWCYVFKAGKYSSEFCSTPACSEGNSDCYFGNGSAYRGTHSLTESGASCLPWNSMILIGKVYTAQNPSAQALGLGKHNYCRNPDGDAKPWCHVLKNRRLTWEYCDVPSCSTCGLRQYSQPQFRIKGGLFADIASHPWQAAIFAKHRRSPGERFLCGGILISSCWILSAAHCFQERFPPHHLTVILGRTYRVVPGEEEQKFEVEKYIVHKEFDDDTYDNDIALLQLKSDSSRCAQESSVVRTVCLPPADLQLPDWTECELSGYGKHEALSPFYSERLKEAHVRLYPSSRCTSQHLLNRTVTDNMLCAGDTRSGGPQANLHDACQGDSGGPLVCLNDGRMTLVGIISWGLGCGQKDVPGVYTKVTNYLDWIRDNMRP

[4] = Half life was evaluated in dog; assay type: ADME, organism-based, Canis lupus familiaris; conditions: in vivo
Prothrombin [5] = molecular target: Prothrombin (Homo sapiens, UniProt P00734); assay: Compound was tested for inhibitory activity against human thrombin

| Structure (SMILES) | Ki (Prothrombin [1]) [µM] | bioavailability [2] [%] | Ki (Coagulation factor X) [µM] | Ki (Plasminogen) [µM] | Ki [3] [µM] | half-life [4] [h] | Ki (Prothrombin [5]) [µM] |
| --- | --- | --- | --- | --- | --- | --- | --- |
| N=C(NN)c1ccc(C[C@H](NS(=O)(=O)c2ccc3ccccc3c2)C(=O)N2CCCCCC2)cc1 | 1.47 | – | – | – | – | – | – |
| CN(C(=O)[C@H](Cc1ccc(C(=N)NN)cc1)NS(=O)(=O)c1ccc2ccccc2c1)C1CCCC1 | 0.0011 | 58 | 1.1 | 47.9 | 27.2 | 1.87 | 0.00038 |
| NN=C(N)c1ccc(C[C@H](NS(=O)(=O)c2ccc3ccccc3c2)C(=O)N(CCO)C2CCCC2)cc1 | 7.04 | – | – | – | – | – | – |
| CCN(C(=O)[C@H](Cc1ccc(C(=N)NN)cc1)NS(=O)(=O)c1ccc2ccccc2c1)C1CCCC1 | 0.004 | – | – | – | – | – | – |
